Results from ChEMBL document CHEMBL2010711, “Synthesis and comparative evaluation of 4-oxa- and 4-aza-podophyllotoxins as antiproliferative microtubule destabilizing agents” (Bioorg Med Chem Lett, 2012).
Active and inactive are the calls of the source.

Key:
Paracentrotus lividus [1] = test: Antimitotic activity against Paracentrotus lividus embryo assessed as cleavage alteration at 2 fold less effective threshold concentration after 2.5 to 6 hrs; assay type: functional, organism-based
U-251 = test: Cytotoxicity against human U251 cells after 48 hrs by trypan blue dye exclusion assay; assay type: functional; conditions: U-251, 48 h
SW-620 = test: Cytotoxicity against human SW620 cells after 48 hrs by trypan blue dye exclusion assay; assay type: functional; conditions: SW-620, 48 h
BT-549 = test: Cytotoxicity against human BT549 cells after 48 hrs by trypan blue dye exclusion assay; assay type: functional; conditions: BT-549, 48 h
SNB-19 = test: Cytotoxicity against human SNB19 cells after 48 hrs by trypan blue dye exclusion assay; assay type: functional; conditions: SNB-19, 48 h
MDA-MB-435 = test: Cytotoxicity against human MDA-MB-435 cells after 48 hrs by trypan blue dye exclusion assay; assay type: functional; conditions: MDA-MB-435, 48 h
UO-31 = test: Cytotoxicity against human UO31 cells after 48 hrs by trypan blue dye exclusion assay; assay type: functional; conditions: UO-31, 48 h
SR = test: Cytotoxicity against human SR cells after 48 hrs by trypan blue dye exclusion assay; assay type: functional
NCI-H522 = test: Cytotoxicity against human NCI-H522 cells after 48 hrs by trypan blue dye exclusion assay; assay type: functional; conditions: NCI-H522, 48 h
LOX IMVI = test: Cytotoxicity against human LOXIMVI cells after 48 hrs by trypan blue dye exclusion assay; assay type: functional
OVCAR-3 = test: Cytotoxicity against human OVCAR3 cells after 48 hrs by trypan blue dye exclusion assay; assay type: functional; conditions: OVCAR-3, 48 h
MOLT-4 = test: Cytotoxicity against human MOLT4 cells after 48 hrs by trypan blue dye exclusion assay; assay type: functional; conditions: MOLT-4, 48 h
HOP-92 = test: Cytotoxicity against human HOP92 cells after 48 hrs by trypan blue dye exclusion assay; assay type: functional; conditions: HOP-92, 48 h
MDA-MB-231 = test: Cytotoxicity against human MDA-MB-231 cells after 48 hrs by trypan blue dye exclusion assay; assay type: functional; conditions: MDA-MB-231, 48 h
RXF 393 = test: Cytotoxicity against human RXF393 cells after 48 hrs by trypan blue dye exclusion assay; assay type: functional; conditions: RXF 393, 48 h
TK-10 = test: Cytotoxicity against human TK10 cells after 48 hrs by trypan blue dye exclusion assay; assay type: functional; conditions: TK-10, 48 h
DU-145 = test: Cytotoxicity against human DU145 cells after 48 hrs by trypan blue dye exclusion assay; assay type: functional; conditions: DU-145, 48 h
NCI-H460 = test: Cytotoxicity against human NCI-H460 cells after 48 hrs by trypan blue dye exclusion assay; assay type: functional; conditions: NCI-H460, 48 h
OVCAR-8 = test: Cytotoxicity against human OVCAR8 cells after 48 hrs by trypan blue dye exclusion assay; assay type: functional; conditions: OVCAR-8, 48 h
HCC 2998 = test: Cytotoxicity against human HCC2998 cells after 48 hrs by trypan blue dye exclusion assay; assay type: functional; conditions: HCC 2998, 48 h
HT-29 = test: Cytotoxicity against human HT-29 cells after 48 hrs by trypan blue dye exclusion assay; assay type: functional; conditions: HT-29, 48 h
SK-MEL-5 = test: Cytotoxicity against human SK-MEL-5 cells after 48 hrs by trypan blue dye exclusion assay; assay type: functional; conditions: SK-MEL-5, 48 h
HL-60(TB) = test: Cytotoxicity against human HL-60(TB) cells after 48 hrs by trypan blue dye exclusion assay; assay type: functional; conditions: HL-60, 48 h
NCI/ADR-RES = test: Cytotoxicity against human NCI/ADR-RES cells after 48 hrs by trypan blue dye exclusion assay; assay type: functional
KM12 = test: Cytotoxicity against human KM12 cells after 48 hrs by trypan blue dye exclusion assay; assay type: functional; conditions: KM12, 48 h
OVCAR-5 = test: Cytotoxicity against human OVCAR5 cells after 48 hrs by trypan blue dye exclusion assay; assay type: functional; conditions: OVCAR-5, 48 h
MDA-MB-468 = test: Cytotoxicity against human MDA-MB-468 cells after 48 hrs by trypan blue dye exclusion assay; assay type: functional; conditions: MDA-MB-468, 48 h
NCI-H226 = test: Cytotoxicity against human NCI-H226 cells after 48 hrs by trypan blue dye exclusion assay; assay type: functional; conditions: NCI-H226, 48 h
HCT-15 = test: Cytotoxicity against human HCT15 cells after 48 hrs by trypan blue dye exclusion assay; assay type: functional; conditions: HCT-15, 48 h
EKVX = test: Cytotoxicity against human EKVX cells after 48 hrs by trypan blue dye exclusion assay; assay type: functional
A549 = test: Cytotoxicity against human A549 cells after 48 hrs by trypan blue dye exclusion assay; assay type: functional; conditions: A549, 48 h
SK-MEL-2 = test: Cytotoxicity against human SK-MEL-2 cells after 48 hrs by trypan blue dye exclusion assay; assay type: functional; conditions: SK-MEL-2, 48 h
A498 = test: Cytotoxicity against human A498 cells after 48 hrs by trypan blue dye exclusion assay; assay type: functional; conditions: A498, 48 h
NCI-H322M = test: Cytotoxicity against human NCI-H322M cells after 48 hrs by trypan blue dye exclusion assay; assay type: functional
UACC-62 = test: Cytotoxicity against human UACC62 cells after 48 hrs by trypan blue dye exclusion assay; assay type: functional; conditions: UACC-62, 48 h
SF-295 = test: Cytotoxicity against human SF295 cells after 48 hrs by trypan blue dye exclusion assay; assay type: functional; conditions: SF-295, 48 h
NCI-H23 = test: Cytotoxicity against human NCI-H23 cells after 48 hrs by trypan blue dye exclusion assay; assay type: functional; conditions: NCI-H23, 48 h
Paracentrotus lividus [2] = test: Microtubule destabilizing activity in Paracentrotus lividus embryo assessed as embryo spinning at 2 fold less effective threshold concentration after 15 mins to 20 hrs; assay type: functional, organism-based
RPMI-8226 = test: Cytotoxicity against human RPMI8226 cells after 48 hrs by trypan blue dye exclusion assay; assay type: functional; conditions: RPMI-8226, 48 h
CCRF-CEM = test: Cytotoxicity against human CCRF-CEM cells after 48 hrs by trypan blue dye exclusion assay; assay type: functional
SK-MEL-28 = test: Cytotoxicity against human SK-MEL-28 cells after 48 hrs by trypan blue dye exclusion assay; assay type: functional; conditions: SK-MEL-28, 48 h
M14 = test: Cytotoxicity against human M14 cells after 48 hrs by trypan blue dye exclusion assay; assay type: functional; conditions: M14, 48 h
COLO 205 = test: Cytotoxicity against human COLO205 cells after 48 hrs by trypan blue dye exclusion assay; assay type: functional; conditions: COLO 205, 48 h
SK-OV-3 = test: Cytotoxicity against human SKOV3 cells after 48 hrs by trypan blue dye exclusion assay; assay type: functional; conditions: SK-OV-3, 48 h
MCF7 = test: Cytotoxicity against human MCF7 cells after 48 hrs by trypan blue dye exclusion assay; assay type: functional; conditions: MCF7, 48 h
[3] = Cytotoxicity against human Hs 578T cells after 48 hrs by trypan blue dye exclusion assay; assay type: functional
SF-268 = test: Cytotoxicity against human SF268 cells after 48 hrs by trypan blue dye exclusion assay; assay type: functional; conditions: SF-268, 48 h
Paracentrotus lividus [4] = test: Antimitotic activity against Paracentrotus lividus embryo assessed as cleavage arrest at 2 fold less effective threshold concentration after 2.5 to 6 hrs; assay type: functional, organism-based
SNB-75 = test: Cytotoxicity against human SNB75 cells after 48 hrs by trypan blue dye exclusion assay; assay type: functional; conditions: SNB-75, 48 h
UACC-257 = test: Cytotoxicity against human UACC257 cells after 48 hrs by trypan blue dye exclusion assay; assay type: functional; conditions: UACC-257, 48 h
PC-3 = test: Cytotoxicity against human PC3 cells after 48 hrs by trypan blue dye exclusion assay; assay type: functional; conditions: PC-3, 48 h
786-0 = test: Cytotoxicity against human 786-0 cells after 48 hrs by trypan blue dye exclusion assay; assay type: functional; conditions: 786-0, 48 h
ACHN = test: Cytotoxicity against human ACHN cells after 48 hrs by trypan blue dye exclusion assay; assay type: functional
CAKI-1 = test: Cytotoxicity against human CAKI-1 cells after 48 hrs by trypan blue dye exclusion assay; assay type: functional; conditions: CAKI-1, 48 h
IGROV-1 = test: Cytotoxicity against human IGROV1 cells after 48 hrs by trypan blue dye exclusion assay; assay type: functional; conditions: IGROV-1, 48 h
SF-539 = test: Cytotoxicity against human SF539 cells after 48 hrs by trypan blue dye exclusion assay; assay type: functional; conditions: SF-539, 48 h
SN12C = test: Cytotoxicity against human SN12C cells after 48 hrs by trypan blue dye exclusion assay; assay type: functional
OVCAR-4 = test: Cytotoxicity against human OVCAR4 cells after 48 hrs by trypan blue dye exclusion assay; assay type: functional; conditions: OVCAR-4, 48 h
HCT-116 = test: Cytotoxicity against human HCT116 cells after 48 hrs by trypan blue dye exclusion assay; assay type: functional; conditions: HCT-116, 48 h

In the case of `COc1cc(OC)cc(C2C3=C(COC3=O)Nc3cc(OC)ccc32)c1` (centres undefined), the Activity (Paracentrotus lividus [1]) is reported as “inactive”, the GI50 (U-251) is reported as < 10 nM and the GI50 (SW-620) is reported as < 10 nM. For the same compound, the GI50 (BT-549) was 13.8 nM, the GI50 (SNB-19) was 27.8 nM and the GI50 (MDA-MB-435) was < 10 nM. The GI50 (UO-31) was 48.8 nM, the GI50 (SR) was < 10 nM and the GI50 (NCI-H522) was < 10 nM. For the same compound, the GI50 (LOX IMVI) was < 10 nM, the GI50 (OVCAR-3) was < 10 nM and the GI50 (MOLT-4) was < 10 nM. The GI50 (HOP-92) was < 10 nM, the GI50 (MDA-MB-231) was 16.5 nM and the GI50 (RXF 393) was < 10 nM. The GI50 (TK-10) was 39700 nM, the GI50 (DU-145) was < 10 nM and the GI50 (NCI-H460) was < 10 nM. The GI50 (OVCAR-8) was 20.4 nM, the GI50 (HCC 2998) was < 10 nM and the GI50 (HT-29) was < 10 nM. The GI50 (SK-MEL-5) was < 10 nM, the GI50 (HL-60(TB)) was < 10 nM and the GI50 (NCI/ADR-RES) was < 10 nM. For the same compound, the GI50 (KM12) was < 10 nM, the GI50 (OVCAR-5) was 40.4 nM and the GI50 (MDA-MB-468) was < 10 nM. For the same compound, the GI50 (NCI-H226) was 14400 nM, the GI50 (HCT-15) was < 10 nM and the GI50 (EKVX) was < 10 nM. The GI50 (A549) was < 10 nM, the GI50 (SK-MEL-2) was 8160 nM and the GI50 (A498) was < 10 nM. The GI50 (NCI-H322M) was < 10 nM, the GI50 (UACC-62) was < 10 nM and the GI50 (SF-295) was < 10 nM. The GI50 (NCI-H23) was < 10 nM, the Activity (Paracentrotus lividus [2]) was “inactive” and the GI50 (RPMI-8226) was < 10 nM. The GI50 (CCRF-CEM) was < 10 nM, the GI50 (SK-MEL-28) was < 10 nM and the GI50 (M14) was < 10 nM. The GI50 (COLO 205) was < 10 nM, the GI50 (SK-OV-3) was < 10 nM and the GI50 (MCF7) was < 10 nM. The GI50 [3] was < 10 nM, the GI50 (SF-268) was < 10 nM and the Activity (Paracentrotus lividus [4]) was “inactive”. The GI50 (SNB-75) was < 10 nM, the GI50 (UACC-257) was > 100000 nM and the GI50 (PC-3) was < 10 nM. For the same compound, the GI50 (786-0) was 20.3 nM, the GI50 (ACHN) was < 10 nM and the GI50 (CAKI-1) was < 10 nM. The GI50 (IGROV-1) was < 10 nM, the GI50 (SF-539) was < 10 nM and the GI50 (SN12C) was 16.1 nM. The GI50 (OVCAR-4) was < 10 nM and the GI50 (HCT-116) was < 10 nM.
